These results are taken from PubChem BioAssay AID248 (DTP/NCI, 2004).

In this assay the test system is L1210 leukemia ip in BDF1 mice, survival T/C. Kind of assay: NCI In Vivo Anticancer Drug Screen. Data for tumor model L1210 Leukemia (intraperitoneal) in B6D2F1 (BDF1) mice. The note with it: endpoint: mean survival time, higher = longer survival. A digest of the protocol:
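Tumor cells were implanted, animals were treated, and survival was followed. The result divides the treated measurement by the vehicle-control measurement.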

Setting [1] is: dose: 100.0 mg/kg/injection, schedule: Q01DX009 (ip), vehicle: Klucel (hydroxypropylcellulose) (HPC).
Where [2] appears, read: dose: 100.0 mg/kg/injection, schedule: Q04DX003 (ip), vehicle: Klucel (hydroxypropylcellulose) (HPC).
Where [3] appears, read: dose: 200.0 mg/kg/injection, schedule: Q01DX009 (ip), vehicle: Klucel (hydroxypropylcellulose) (HPC).
Where [4] appears, read: dose: 200.0 mg/kg/injection, schedule: Q04DX003 (ip), vehicle: Klucel (hydroxypropylcellulose) (HPC).
The mark [5] stands for this setting: dose: 400.0 mg/kg/injection, schedule: Q04DX003 (ip), vehicle: Klucel (hydroxypropylcellulose) (HPC).
Where [6] appears, read: dose: 400.0 mg/kg/injection, schedule: Q01DX009 (ip), vehicle: Klucel (hydroxypropylcellulose) (HPC).

SMILES strings stand for the structures. Values joined by “and” are separate entries in the source; they are usually repeats but may differ in a detail not shown here. Equal entries are not always repeated. Inconclusive results and toxic doses are left out.

On to `O=C(CCC(=O)Nc1ccc(C2=NCCN2)cc1)Nc1ccc(C2=NCCN2)cc1`, for which the T/C is 100 % of control (dose: 2.0 mg/kg/injection, schedule: Q01DX Z (ip), vehicle: carboxymethylcellulose (CMC)); 105 % of control (dose: 3.0 mg/kg/injection, schedule: Q01DX Z (ip), vehicle: carboxymethylcellulose (CMC)); 114 % of control (dose: 4.0 mg/kg/injection, schedule: Q01DX Z (ip), vehicle: carboxymethylcellulose (CMC)); 107 % of control (dose: 6.0 mg/kg/injection, schedule: Q01DX Z (ip), vehicle: carboxymethylcellulose (CMC)); 173 % of control (dose: 12.0 mg/kg/injection, schedule: Q01DX Z (ip), vehicle: carboxymethylcellulose (CMC)); 218 % of control and 234 % of control (dose: 16.0 mg/kg/injection, schedule: Q01DX Z (ip), vehicle: carboxymethylcellulose (CMC)). Moreover, the T/C (dose: 24.0 mg/kg/injection, schedule: Q01DX Z (ip), vehicle: carboxymethylcellulose (CMC)) was 216 % of control; the T/C (dose: 38.0 mg/kg/injection, schedule: Q01DX001 (ip), vehicle: carboxymethylcellulose (CMC)) was 120 % of control; the T/C (dose: 38.0 mg/kg/injection, schedule: Q01DX001 (ip), vehicle: other) was 117 % of control; the T/C (dose: 56.0 mg/kg/injection, schedule: Q01DX001 (ip), vehicle: carboxymethylcellulose (CMC)) was 120 % of control; the T/C (dose: 56.0 mg/kg/injection, schedule: Q01DX001 (ip), vehicle: other) was 119 % of control; the T/C (dose: 62.0 mg/kg/injection, schedule: Q01DX Z (oral), vehicle: carboxymethylcellulose (CMC)) was 104 % of control. Moreover, the T/C by setting is: (dose: 64.0 mg/kg/injection, schedule: Q01DX Z (ip), vehicle: carboxymethylcellulose (CMC)) 113 % of control; (dose: 125.0 mg/kg/injection, schedule: Q01DX Z (oral), vehicle: carboxymethylcellulose (CMC)) 104 % of control; (dose: 128.0 mg/kg/injection, schedule: Q01DX001 (ip), vehicle: carboxymethylcellulose (CMC)) 183 % of control; (dose: 250.0 mg/kg/injection, schedule: Q01DX Z (oral), vehicle: carboxymethylcellulose (CMC)) 110 % of control; (dose: 500.0 mg/kg/injection, schedule: Q01DX Z (oral), vehicle: carboxymethylcellulose (CMC)) 177 % of control.
Turning to `Cc1c2ccccc2c2ccccc2[n+]1[O-]`, the T/C is 97 % of control (dose: 100.0 mg/kg/injection, schedule: Q04DX002 (ip), vehicle: saline with Tween-80) and 101 % of control (dose: 200.0 mg/kg/injection, schedule: Q04DX002 (ip), vehicle: saline with Tween-80).
As to `CN(N=O)C(=O)NC(=O)N(C)N=O`, the T/C is, setting by setting: (dose: 18.0 mg/kg/injection, schedule: Q01DX Z (ip), vehicle: carboxymethylcellulose (CMC)) 155 % of control; (dose: 27.5 mg/kg/injection, schedule: Q01DX001 (ip), vehicle: carboxymethylcellulose (CMC)) 110 % of control; (dose: 54.0 mg/kg/injection, schedule: Q01DX001 (ip), vehicle: carboxymethylcellulose (CMC)) 118 % of control; (dose: 75.0 mg/kg/injection, schedule: Q01DX Z (ip), vehicle: carboxymethylcellulose (CMC)) 87 % of control; (dose: 108.0 mg/kg/injection, schedule: Q01DX001 (ip), vehicle: carboxymethylcellulose (CMC)) 86 % of control.
As to `CCc1ccccc1NC(=O)Sc1ccccc1C`, the T/C under setting [1] was 90 % of control; the T/C under setting [2] is 110 % of control; the T/C under setting [3] is 87 % of control; the T/C under setting [4] was 102 % of control; the T/C under setting [5] is 100 % of control.
On to `Cc1[nH]ccc2c(C)c3nc4c5ccccc5ccc4c3cc12`, for which the T/C is 98 % of control (dose: 60.0 mg/kg/injection, schedule: Q01DX Z (ip), vehicle: carboxymethylcellulose (CMC)); 98 % of control (dose: 120.0 mg/kg/injection, schedule: Q01DX Z (ip), vehicle: carboxymethylcellulose (CMC)); 90 % of control (dose: 240.0 mg/kg/injection, schedule: Q01DX Z (ip), vehicle: carboxymethylcellulose (CMC)).
For `CC(=O)N=C1CCCC1C#N` (stereo not drawn), the T/C under setting [1] is 101 % of control; the T/C (dose: 100.0 mg/kg/injection, schedule: Q04DX003 (ip), vehicle: saline) was 105 % of control; the T/C under setting [3] was 101 % of control; the T/C (dose: 200.0 mg/kg/injection, schedule: Q04DX003 (ip), vehicle: saline) is 109 % of control; the T/C under setting [6] is 95 % of control; the T/C (dose: 400.0 mg/kg/injection, schedule: Q04DX003 (ip), vehicle: saline) was 100 % of control.
Regarding `O=C(Oc1cccc(OC(=O)c2ccccc2)c1)c1ccccc1`, the T/C is, setting by setting: (dose: 100.0 mg/kg/injection, schedule: Q04DX003 (ip), vehicle: saline with Tween-80) 100 % of control; (dose: 200.0 mg/kg/injection, schedule: Q04DX003 (ip), vehicle: saline with Tween-80) 91 % of control; (dose: 400.0 mg/kg/injection, schedule: Q04DX003 (ip), vehicle: saline with Tween-80) 88 % of control.
Regarding `CCCCCCCCCCCCCCCCCC1=NCC[N+]1(CCO)Cc1ccccc1` (stereo not drawn) (tested in a mixture with another compound), the T/C reads like this: (dose: 12.5 mg/kg/injection, schedule: Q04DX003 (ip), vehicle: saline with Tween-80) 98 % of control; (dose: 25.0 mg/kg/injection, schedule: Q04DX003 (ip), vehicle: saline with Tween-80) 101 % of control.
Take `Cc1ccc(Nc2cc(=S)nc(N)[nH]2)cc1Cl`: the T/C was 97 % of control (dose: 100.0 mg/kg/injection, schedule: Q01DX Z (ip), vehicle: methylcellulose (MC)) and 96 % of control (dose: 200.0 mg/kg/injection, schedule: Q01DX Z (ip), vehicle: methylcellulose (MC)).
For the molecule `CC(C)N(CSc1ccc([N+](=O)[O-])cc1)CSc1ccc([N+](=O)[O-])cc1`, the T/C (dose: 100.0 mg/kg/injection, schedule: Q01DX001 (ip), vehicle: saline) was 100 % of control; the T/C (dose: 200.0 mg/kg/injection, schedule: Q01DX001 (ip), vehicle: saline) was 96 % of control; the T/C (dose: 400.0 mg/kg/injection, schedule: Q01DX001 (ip), vehicle: saline) was 98 % of control.
Regarding `CC(C)(C)OC(=O)C(CSSCC(NC(=O)OCc1ccccc1)C(=O)OC(C)(C)C)NC(=O)OCc1ccccc1` (stereo not drawn), the T/C was 98 % of control under setting [1]; 98 % of control under setting [2]; 107 % of control under setting [3]; 96 % of control under setting [4]; 107 % of control under setting [6]; 96 % of control under setting [5].
Consider `CC12C3CCC(C3)C1(O)C2S(=O)(=O)N1CCCCC1` (stereo not drawn), for which the T/C was 110 % of control (dose: 100.0 mg/kg/injection, schedule: Q01DX009 (ip), vehicle: saline) and 104 % of control (dose: 200.0 mg/kg/injection, schedule: Q01DX009 (ip), vehicle: saline).
With `CCOc1ccc(NC(=O)CCC(=O)O)cc1`, the T/C was 91 % of control under setting [1], 93 % of control under setting [3] and 91 % of control under setting [6].
With `C(=N\C(/N=C/c1ccccc1)c1ccccc1)/c1ccccc1`, the T/C is 96 % of control under setting [1]; 92 % of control under setting [2]; 94 % of control under setting [3]; 94 % of control under setting [4]; 92 % of control under setting [6]; 92 % of control under setting [5].
Regarding `c1ccc(Sc2cc(Sc3ccccc3)c3cccccc2-3)cc1`, the T/C is, setting by setting: (dose: 100.0 mg/kg/injection, schedule: Q01DX001 (ip), vehicle: carboxymethylcellulose (CMC)) 96 % of control; (dose: 200.0 mg/kg/injection, schedule: Q01DX001 (ip), vehicle: carboxymethylcellulose (CMC)) 100 % of control; (dose: 400.0 mg/kg/injection, schedule: Q01DX001 (ip), vehicle: carboxymethylcellulose (CMC)) 87 % of control.
